Data reported in publication PMC6234229, “The role of loops B and C in determining the potentiation of GABAA receptors by midazolam” (Pharmacology Research & Perspectives, 2018).

Experiments:
Experiment in all cases: Midazolam potentiation of EC10 GABA currents, whole-cell patch clamp, HEK293T
Format in all cases: cell-based
[1] = target: T1, α5(H105R)β2γ2 GABAA receptor (Homo sapiens, UniProt P18507+P31644+P47870, H136R)
T1 construct: expressed in transfected cells; host or cells: HEK293T
Source text: (§1) Human (Homo sapiens) GABAA subunits (α1‐6, β2, γ2s) were subcloned into pcDNA3.1+ vectors with a cytomegalovirus (CMV) promoter. The hβ2 and hα3 sequences were humanized rat (Rattus norvegicus) cDNA with amino acid substitutions made to match the human protein sequence. The α1‐3, α5, β2, and γ2s subunits were a generous gift from Neil L. Harrison (Columbia University Medical Center, NY). The α4 subunit was obtained from GenScript (Piscataway, NJ), and the α6 subunit was a generous gift from Robert L. McDonald (Vanderbilt University, TN). All point mutations (listed in Figure 1C) were introduced using the QuikChange Lightening site‐directed mutagenesis kit (Agilent Technologies, Santa Clara, CA) according to the manufacturer's instructions and were confirmed by sequencing (Eurofins MWG Operon, Louisville, KY).
(§2) Human embryonic kidney cells containing the SV40 T‐antigen (HEK293T) were acquired from American Type Culture Collection (ATCC®, Manassas, VA), catalogue number, CRL3216. HEK293T cells were maintained at 37°C and 5% CO2 in Eagle Minimum Essential Medium (MEM) supplemented with 5% fetal bovine serum (Atlanta Biologicals Inc., Flowery Branch, GA), 40 μM L‐glutamine, 100 U/mL penicillin and 0.1 mM streptomycin. Cells were passaged regularly when they reached 70% confluency using trypsin. Cells were not passaged more than 22 times. New cells were revived from frozen stocks at passage 2‐4. Cells used for in vitro electrophysiology experiments were grown on poly‐D‐lysine‐coated glass coverslips (No.2, VWR, Radnor, PA) and transfected with X‐tremeGENE (Roche Diagnostics, Indianapolis, IN) with the desired receptor subunit cDNAs at a 1:1:1 ratio to express αxβ2γ2s receptors (2 μg total cDNA) and with 0.5 μg green fluorescent protein (GFP) as an expression marker. The γ2s incorporation into receptors was tested with zinc inhibition assays regularly.24 Patch clamp experiments were performed on cells at 24‐72 hours post‐transfection. All experiments were performed at 22°C. Experiments consisted of at least five cells recorded per day from at least two transfections across 3‐4 days to control for cell health and transfection efficiency. At least three cells expressing wild‐type receptors were recorded on days that mutant receptors were tested to provide a time‐matched expression control. All reagents were purchased from Sigma‐Aldrich (St. Louis, MO) unless otherwise stated.
(§3) Extracellular solution contained 161 mM NaCl, 3 mM KCl, 1 mM MgCl2, 1.5 mM CaCl2, 10 mM HEPES, and 6 mM D‐glucose, adjusted to pH 7.4 with NaOH (320‐330 mOsm). […] The perfusion system was controlled by protocols written in pClamp 9 (Molecular Devices, LLC., Sunnyvale, CA). Whole‐cell currents were recorded at ‐60 mV, filtered at 100 Hz and sampled at 200 Hz with a MultiClamp 700B amplifier (Molecular Devices, LLC) and DigiData 1322A (Molecular Devices, LLC) digitizer. […] Cells were recorded with the midazolam protocol no more than two times to avoid desensitization and incomplete washout or irreversible modulation.
(§4) Recordings were analyzed using MATLAB (Math Works, Inc., Natick, MA). […] The maximum peak current, EC50 and Hill coefficient were estimated for assays from each cell. When Hill parameters are estimated from whole‐cell recordings, the changes in the parameters across receptor conditions can be ascribed to the following changes in receptor physiology. Changes in maximum current can be due to changes in the single‐channel conductance or the rate of desensitization. Changes in cell surface receptor expression can cause minor changes in maximum current, but are unlikely to occur in the time course of our experimental protocol. […] More often minor changes in the Hill coefficient are attributed to the altered homogeneity in the receptor population expressed by the HEK293T cell. For example, a shallower Hill coefficient could be caused by a shift in the population of receptors from mostly αβγ receptors to a combination of both αβ and αβγ receptors.

[2] = target: T2, α2(H101R)β2γ2 GABAA receptor (Homo sapiens, UniProt P18507+P47869+P47870, H129R); conditions: for Midazolam potentiation (%): α2(H101R)
T2 construct: expressed in transfected cells; host or cells: HEK293T
Source text: as §1, §2, §3, §4

α3β2γ2 GABAA receptor = target: T3, α3β2γ2 GABAA receptor (Homo sapiens, UniProt P18507+P34903+P47870)
T3 construct: expressed in transfected cells; host or cells: HEK293T
Source text: as §1, §2, §3, §4

α2β2γ2 GABAA receptor = target: T4, α2β2γ2 GABAA receptor (Homo sapiens, UniProt P18507+P47869+P47870)
T4 construct: expressed in transfected cells; host or cells: HEK293T
Source text: as §1, §2, §3, §4

α5β2γ2 GABAA receptor = target: T5, α5β2γ2 GABAA receptor (Homo sapiens, UniProt P18507+P31644+P47870)
T5 construct: expressed in transfected cells; host or cells: HEK293T
Source text: as §1, §2, §3, §4

α1β2γ2 GABAA receptor = target: T6, α1β2γ2 GABAA receptor (Homo sapiens, UniProt P14867+P18507+P47870)
T6 construct: expressed in transfected cells; host or cells: HEK293T
Source text: as §1, §2, §3, §4

[3] = target: T7, α3(S230I)β2γ2 GABAA receptor (Homo sapiens, UniProt P18507+P34903+P47870, S258I)
T7 construct: expressed in transfected cells; host or cells: HEK293T
Source text: as §1, §2, §3, §4

T2 sequence (P47869 29-451 H129R): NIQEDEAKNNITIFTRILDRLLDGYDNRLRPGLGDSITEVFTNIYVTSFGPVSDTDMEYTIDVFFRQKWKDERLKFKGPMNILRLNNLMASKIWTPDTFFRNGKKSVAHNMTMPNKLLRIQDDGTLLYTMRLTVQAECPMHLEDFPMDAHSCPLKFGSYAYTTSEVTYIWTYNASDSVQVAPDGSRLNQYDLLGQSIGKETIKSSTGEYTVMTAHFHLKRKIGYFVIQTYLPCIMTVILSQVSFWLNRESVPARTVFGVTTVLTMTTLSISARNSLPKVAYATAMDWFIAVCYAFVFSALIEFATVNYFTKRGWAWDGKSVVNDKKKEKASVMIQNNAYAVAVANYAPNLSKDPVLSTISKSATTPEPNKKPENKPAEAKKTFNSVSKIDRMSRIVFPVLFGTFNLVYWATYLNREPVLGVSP
T2 sequence (P47870 25-512 limits assumed): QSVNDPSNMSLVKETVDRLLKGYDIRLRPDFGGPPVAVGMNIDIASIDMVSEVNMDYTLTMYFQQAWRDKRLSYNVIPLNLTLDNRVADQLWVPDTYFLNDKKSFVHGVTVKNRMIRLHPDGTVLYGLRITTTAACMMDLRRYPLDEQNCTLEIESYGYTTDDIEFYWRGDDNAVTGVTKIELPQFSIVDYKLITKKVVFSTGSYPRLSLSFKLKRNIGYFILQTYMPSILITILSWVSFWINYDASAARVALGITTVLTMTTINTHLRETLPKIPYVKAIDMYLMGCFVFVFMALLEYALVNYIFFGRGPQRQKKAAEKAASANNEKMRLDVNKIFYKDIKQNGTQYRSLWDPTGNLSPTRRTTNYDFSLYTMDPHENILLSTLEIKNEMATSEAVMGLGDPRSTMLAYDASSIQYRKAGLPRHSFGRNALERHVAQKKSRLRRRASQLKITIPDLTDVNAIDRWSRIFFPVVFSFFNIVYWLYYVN
T2 sequence (P18507 40-467 isoform P18507-1 limits assumed, stated change not applied): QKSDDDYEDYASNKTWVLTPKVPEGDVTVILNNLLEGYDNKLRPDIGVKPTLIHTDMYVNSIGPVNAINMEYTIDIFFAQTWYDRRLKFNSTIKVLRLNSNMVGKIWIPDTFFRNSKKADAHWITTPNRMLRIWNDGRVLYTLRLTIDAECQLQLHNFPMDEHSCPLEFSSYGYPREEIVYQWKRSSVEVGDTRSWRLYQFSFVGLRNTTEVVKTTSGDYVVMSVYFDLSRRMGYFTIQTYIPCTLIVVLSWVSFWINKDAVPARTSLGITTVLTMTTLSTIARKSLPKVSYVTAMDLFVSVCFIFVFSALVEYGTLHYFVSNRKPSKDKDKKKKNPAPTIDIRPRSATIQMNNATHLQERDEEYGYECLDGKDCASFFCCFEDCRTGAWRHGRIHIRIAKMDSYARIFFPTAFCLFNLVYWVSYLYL
T1 sequence (P31644 32-462 H136R): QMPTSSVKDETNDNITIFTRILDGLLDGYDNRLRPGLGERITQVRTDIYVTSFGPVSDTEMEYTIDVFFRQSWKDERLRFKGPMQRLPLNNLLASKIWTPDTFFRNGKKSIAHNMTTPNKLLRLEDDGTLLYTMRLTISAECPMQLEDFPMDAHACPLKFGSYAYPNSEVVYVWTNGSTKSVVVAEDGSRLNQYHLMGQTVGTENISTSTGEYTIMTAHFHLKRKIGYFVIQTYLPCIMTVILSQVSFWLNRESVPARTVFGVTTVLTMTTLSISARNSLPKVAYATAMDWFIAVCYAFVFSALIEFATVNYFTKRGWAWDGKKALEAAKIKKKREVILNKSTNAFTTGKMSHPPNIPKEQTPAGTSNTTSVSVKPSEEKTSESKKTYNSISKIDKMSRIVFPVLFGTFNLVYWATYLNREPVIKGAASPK
T1 sequence (P47870 26-474 isoform P47870-1 limits assumed, stated change not applied): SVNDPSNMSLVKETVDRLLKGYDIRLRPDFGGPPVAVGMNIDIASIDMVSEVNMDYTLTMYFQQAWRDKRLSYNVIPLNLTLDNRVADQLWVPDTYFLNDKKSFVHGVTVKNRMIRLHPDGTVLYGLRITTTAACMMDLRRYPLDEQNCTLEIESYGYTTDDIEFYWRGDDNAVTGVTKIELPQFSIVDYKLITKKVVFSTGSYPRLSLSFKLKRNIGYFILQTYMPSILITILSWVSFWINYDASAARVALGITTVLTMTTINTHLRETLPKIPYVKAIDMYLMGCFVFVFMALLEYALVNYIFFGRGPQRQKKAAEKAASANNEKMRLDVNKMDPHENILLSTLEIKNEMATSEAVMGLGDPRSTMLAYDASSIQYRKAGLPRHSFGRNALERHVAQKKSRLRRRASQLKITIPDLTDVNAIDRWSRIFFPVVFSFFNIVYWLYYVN
T1 sequence (P18507 40-467 isoform P18507-1 limits assumed, stated change not applied): as the sequence (P18507 40-467 isoform P18507-1 limits assumed, stated change not applied) above
T5 sequence (P31644 32-462): as the sequence (P31644 32-462 H136R) above, with R105H counted along it
T5 sequence (P47870 26-474 isoform P47870-1 limits assumed): as the sequence (P47870 26-474 isoform P47870-1 limits assumed, stated change not applied) above
T5 sequence (P18507 40-467 isoform P18507-1 limits assumed): as the sequence (P18507 40-467 isoform P18507-1 limits assumed, stated change not applied) above
T6 sequence (P14867 28-456): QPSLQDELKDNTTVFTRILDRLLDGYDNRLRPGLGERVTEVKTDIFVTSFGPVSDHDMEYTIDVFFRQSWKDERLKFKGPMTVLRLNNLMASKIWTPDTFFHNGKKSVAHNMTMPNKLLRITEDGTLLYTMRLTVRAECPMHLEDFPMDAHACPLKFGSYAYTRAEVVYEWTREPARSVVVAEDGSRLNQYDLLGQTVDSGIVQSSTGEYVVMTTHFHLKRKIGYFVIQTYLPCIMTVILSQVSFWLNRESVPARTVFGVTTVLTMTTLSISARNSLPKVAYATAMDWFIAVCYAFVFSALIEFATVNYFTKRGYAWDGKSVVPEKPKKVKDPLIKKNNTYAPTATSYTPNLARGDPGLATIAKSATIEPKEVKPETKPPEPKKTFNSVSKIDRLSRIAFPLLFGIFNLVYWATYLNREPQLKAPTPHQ
T6 sequence (P47870 26-474 isoform P47870-1 limits assumed): as the sequence (P47870 26-474 isoform P47870-1 limits assumed, stated change not applied) above
T6 sequence (P18507 40-467 isoform P18507-1 limits assumed): as the sequence (P18507 40-467 isoform P18507-1 limits assumed, stated change not applied) above
T3 sequence (P34903 29-492): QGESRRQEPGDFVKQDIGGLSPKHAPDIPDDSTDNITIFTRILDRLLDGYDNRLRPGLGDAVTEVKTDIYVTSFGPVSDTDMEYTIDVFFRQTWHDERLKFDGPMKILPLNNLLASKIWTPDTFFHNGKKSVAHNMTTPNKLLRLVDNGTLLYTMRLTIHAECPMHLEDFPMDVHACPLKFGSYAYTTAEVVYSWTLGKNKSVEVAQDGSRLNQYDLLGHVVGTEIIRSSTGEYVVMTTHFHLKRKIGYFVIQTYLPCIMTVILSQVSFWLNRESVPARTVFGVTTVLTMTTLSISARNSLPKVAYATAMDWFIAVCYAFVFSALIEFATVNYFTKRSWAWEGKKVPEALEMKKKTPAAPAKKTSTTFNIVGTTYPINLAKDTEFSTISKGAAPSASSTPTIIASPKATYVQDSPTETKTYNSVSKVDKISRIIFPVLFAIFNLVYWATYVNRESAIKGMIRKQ
T3 sequence (P47870 25-512 limits assumed): as the sequence (P47870 25-512 limits assumed) above
T3 sequence (P18507 40-467 isoform P18507-1 limits assumed): as the sequence (P18507 40-467 isoform P18507-1 limits assumed, stated change not applied) above
T4 sequence (P47869 29-451): as the sequence (P47869 29-451 H129R) above, with R101H counted along it
T4 sequence (P47870 25-512 limits assumed): as the sequence (P47870 25-512 limits assumed) above
T4 sequence (P18507 40-467 isoform P18507-1 limits assumed): as the sequence (P18507 40-467 isoform P18507-1 limits assumed, stated change not applied) above
T7 sequence (P34903 29-492 S258I): as the sequence (P34903 29-492) above, with S230I counted along it
T7 sequence (P47870 25-512 limits assumed): as the sequence (P47870 25-512 limits assumed) above
T7 sequence (P18507 40-467 isoform P18507-1 limits assumed, stated change not applied): as the sequence (P18507 40-467 isoform P18507-1 limits assumed, stated change not applied) above

Cc1ncc2n1-c1ccc(Cl)cc1C(c1ccccc1F)=NC2 [midazolam]
responsiveness to midazolam potentiation [1]: abolished the ability of receptors to respond to midazolam potentiation
Midazolam potentiation (%) ([1]; 10 nM MDZ + EC10 GABA): 8.59 ± 4.39%
Midazolam potentiation (%) ([1]; 50 nM MDZ + EC10 GABA): 7.73 ± 4.67%
Midazolam potentiation (%) ([1]; 100 nM MDZ + EC10 GABA): 8.00 ± 4.85%
Midazolam potentiation (%) ([1]; 500 nM MDZ + EC10 GABA): 5.65 ± 3.99%
Midazolam potentiation (%) ([1]; 1000 nM MDZ + EC10 GABA): 8.17 ± 4.66%
Midazolam potentiation (%) ([2]; 10 nM MDZ + EC10 GABA): 9.85 ± 5.77%
Midazolam potentiation (%) ([2]; 50 nM MDZ + EC10 GABA): 21.72 ± 8.75%
Midazolam potentiation (%) ([2]; 100 nM MDZ + EC10 GABA): 25.17 ± 9.58%
Midazolam potentiation (%) ([2]; 500 nM MDZ + EC10 GABA): 30.08 ± 10.31%
Midazolam potentiation (%) ([2]; 1000 nM MDZ + EC10 GABA): 31.81 ± 11.79%
responsiveness to midazolam potentiation ([2]; printed α2(H102R)): abolished the ability of receptors to respond to midazolam potentiation
Midazolam potentiation (%) (α3β2γ2 GABAA receptor; 10 nM MDZ + EC10 GABA): 37.98 ± 5.40%
Midazolam potentiation (%) (α3β2γ2 GABAA receptor; 50 nM MDZ + EC10 GABA): 132.92 ± 12.09%
Midazolam potentiation (%) (α3β2γ2 GABAA receptor; 100 nM MDZ + EC10 GABA): 221.10 ± 19.12%
Midazolam potentiation (%) (α3β2γ2 GABAA receptor; 500 nM MDZ + EC10 GABA): 279.18 ± 24.71%
Midazolam potentiation (%) (α3β2γ2 GABAA receptor; 1000 nM MDZ + EC10 GABA): 281.17 ± 24.73%
EC50 (α3β2γ2 GABAA receptor; EC50 (nM), midazolam potentiation of EC10 GABA): 46.4 nM
Max potentiation (%) (α3β2γ2 GABAA receptor; Hill fit, midazolam 10-1000 nM + EC10 GABA): 267.8 ± 20.3%
Hill coefficient (α3β2γ2 GABAA receptor; midazolam Hill fit): 1.503 ± 0.117
EC50 (α2β2γ2 GABAA receptor): 50.9 ± 5.05 nM
Midazolam potentiation (%) (α2β2γ2 GABAA receptor; 10 nM MDZ + EC10 GABA, α2β2γ2): 19.47 ± 4.19%
Midazolam potentiation (%) (α2β2γ2 GABAA receptor; 50 nM MDZ + EC10 GABA, α2β2γ2): 69.08 ± 17.73%
Midazolam potentiation (%) (α2β2γ2 GABAA receptor; 100 nM MDZ + EC10 GABA, α2β2γ2): 128.98 ± 36.14%
Midazolam potentiation (%) (α2β2γ2 GABAA receptor; 500 nM MDZ + EC10 GABA, α2β2γ2): 167.38 ± 49.89%
Midazolam potentiation (%) (α2β2γ2 GABAA receptor; 1000 nM MDZ + EC10 GABA, α2β2γ2): 165.35 ± 48.98%
Max potentiation (%) (α2β2γ2 GABAA receptor; α2β2γ2, Hill fit, midazolam 10-1000 nM + EC10 GABA): 169.6 ± 49.9%
Hill coefficient (α2β2γ2 GABAA receptor; α2β2γ2, midazolam Hill fit): 1.743 ± 0.133
EC50 (α5β2γ2 GABAA receptor): 52.8 ± 3.48 nM
Midazolam potentiation (%) (α5β2γ2 GABAA receptor; 10 nM MDZ + EC10 GABA, α5β2γ2): 20.47 ± 10.62%
Midazolam potentiation (%) (α5β2γ2 GABAA receptor; 50 nM MDZ + EC10 GABA, α5β2γ2): 63.82 ± 19.54%
Midazolam potentiation (%) (α5β2γ2 GABAA receptor; 100 nM MDZ + EC10 GABA, α5β2γ2): 113.29 ± 28.44%
Midazolam potentiation (%) (α5β2γ2 GABAA receptor; 500 nM MDZ + EC10 GABA, α5β2γ2): 130.90 ± 29.52%
Midazolam potentiation (%) (α5β2γ2 GABAA receptor; 1000 nM MDZ + EC10 GABA, α5β2γ2): 123.12 ± 26.08%
Max potentiation (%) (α5β2γ2 GABAA receptor; α5β2γ2, Hill fit, midazolam 10-1000 nM + EC10 GABA): 107.9 ± 20.3%
Hill coefficient (α5β2γ2 GABAA receptor; α5β2γ2, midazolam Hill fit): 2.632 ± 0.329
EC50 (α1β2γ2 GABAA receptor): 71.4 ± 5.8 nM
Midazolam potentiation (%) (α1β2γ2 GABAA receptor; 10 nM MDZ + EC10 GABA, α1β2γ2): 22.06 ± 3.46%
Midazolam potentiation (%) (α1β2γ2 GABAA receptor; 50 nM MDZ + EC10 GABA, α1β2γ2): 71.67 ± 6.40%
Midazolam potentiation (%) (α1β2γ2 GABAA receptor; 100 nM MDZ + EC10 GABA, α1β2γ2): 145.94 ± 13.37%
Midazolam potentiation (%) (α1β2γ2 GABAA receptor; 500 nM MDZ + EC10 GABA, α1β2γ2): 201.94 ± 16.80%
Midazolam potentiation (%) (α1β2γ2 GABAA receptor; 1000 nM MDZ + EC10 GABA, α1β2γ2): 215.35 ± 26.71%
Max potentiation (%) (α1β2γ2 GABAA receptor; α1β2γ2, Hill fit, midazolam 10-1000 nM + EC10 GABA): 203.0 ± 17.6%
Hill coefficient (α1β2γ2 GABAA receptor; α1β2γ2, midazolam Hill fit): 1.765 ± 0.165
Midazolam potentiation (%) ([3]; 10 nM MDZ + EC10 GABA, α3(S230I)): 37.59 ± 4.12%
Midazolam potentiation (%) ([3]; 50 nM MDZ + EC10 GABA, α3(S230I)): 139.86 ± 12.63%
Midazolam potentiation (%) ([3]; 100 nM MDZ + EC10 GABA, α3(S230I)): 280.95 ± 24.73%
Midazolam potentiation (%) ([3]; 500 nM MDZ + EC10 GABA, α3(S230I)): 413.27 ±37.70%
Midazolam potentiation (%) ([3]; 1000 nM MDZ + EC10 GABA, α3(S230I)): 428.92 ± 38.09%
EC50 ([3]; EC50 (nM), α3(S230I), midazolam potentiation of EC10 GABA): 73.6 nM
enhancement of maximum midazolam potentiation relative to wildtype ([3]; α3(S230I) vs α3β2γ2): approximately 63%
Max potentiation (%) ([3]; α3(S230I), Hill fit, midazolam 10-1000 nM + EC10 GABA): 436.0 ± 39.4%
Hill coefficient ([3]; α3(S230I), midazolam Hill fit): 1.655 ± 0.061
